For test [1], the system named is human breast cancer MDA-MB-435. Put plainly: Human breast cancer MDA-MB-435 xenograph nude mice. In kind it is in vivo. The conditions noted are these: 0.5 mg/kg IV, 6 times a week, 4 weeks. The method, then: (§1) Experimental animals: Female BALB/cA nude mice, age 35-40 days, weight 18-22 g, provided by Shanghai Silaike Experimental Animal Co. Ltd., certificate number: SOCK (Shanghai) 2007-0005.
(§2) The tumor of xenograph nude mice grew to 100˜300 mm^3. Tumor mice were divided into different groups for drug testing. In the experiment below, there were 12 nude mice in negative control group, and 6 nude mice in the group with tested drug. Tumor diameter was measured three times each week, and mice weight was measured at the same time.
(§3) T/C (relative tumor inhibition rate) % was calculated as below: • (1) tumor volume, TV, calculated as below: TV=½×a×b^2 • A and b are length and width. • (2) relative tumor volume, RTV, calculated as below: RTV=TVt/TV0. • TV0 ? is tumor volume at the beginning of drug use (d0), TVt is tumor volume at later time point. • (3) relative tumor inhibition rate T/C (%), calculate as below:
(§4) [formula] TRTV: treatment group RTV; CRTV: negative control RTV
Peptide SEQ ID No:1 was given through tail vein (IV), at dosing of 2 mg/kg, 1 mg/kg, 0.5 mg/kg, 6 times a week. Docetaxol was positive control, at dosing of 20 mg/kg, once a week. Negative control was given saline solution. The xenograph nude mice were treated for 4 weeks.

The test system of test [2] is human liver cancer BEL-7402. Put plainly: Human liver cancer BEL-7402 xenograph nude mice. In kind it is in vivo. The conditions noted are these: for T/C(%) relative tumor inhibition rate: 6 times a week, 3 weeks. As for the experimental part: as §1, §2, §3, §4
[…] Docetaxol was positive control, at dosing of 20 mg/kg, once a week. Negative control was given saline solution. The xenograph nude mice were treated for 3 weeks.

The test system of test [3] is phosphorylation of Erk1/2. The test can be described thus: Western blot, PDGFR intracellular Ras-Raf signaling pathway in HUVEC. In kind it is cell-based, Human. The conditions noted are these: 6 hours, 10 ug/ml (2 uM). As for the experimental part:
Various concentration of Peptide SEQ ID No:1 was incubated with Human Umbilical Vein Endothelial Cells (HUVEC) cells for 6 hours. Protein was extracted from these cells and western blot was performed. Antibody for p-stat1: Antibody against phophorylated-Tyr701; Antibody for p-MEK1/2: Antibody against phophorylated-Ser217/221 peptide; Antibody for p-Erk1/2: Antibody against phophorylated-Ser202/204. beta-Actin was a control to make sure all lanes are loaded with same amount of protein.
(A western blot detects proteins with antibodies after separation by electrophoresis.)

Where no end group is shown, it is not given here.

“SKVTKKYHEVLQLRPKTGVRGLHKSLTDVALEHHEECDCVCRGSTGG-OH (cysteines drawn unpaired) [Peptide SEQ ID NO:1]”: the “T/C(%) relative tumor inhibition rate” value in test [1] is reported as 49.40%; in test [2] (0.0625 mg/kg IV), 58.56%; in test [2] (0.125 mg/kg IV), 62.10%; in test [2] (0.25 mg/kg IV), 69.06%; in test [2] (0.5 mg/kg IV), 64.90%. Further, in test [2] (BEL-7402, 1 mg/kg), the “inhibition, tumor” value is 39.7%. Further, the “phosphorylation of Erk1/2 (western blot)” value in test [3] is listed as “significantly inhibits phosphorylation of Erk1/2”.

The record behind these values is patent publication US8637467B2, “Pharmaceutical being used for treating cancer and fibrosis disease and the composition and uses thereof” (Wuxi MTLH Biotechnology Co., Ltd., priority 2008, dated 2014).
